From US20050032873A1, “3-Amino chroman and 2-amino tetralin derivatives” (Wyeth, priority 2003, published 2005)
Read-outs that look alike come from different tables or passages of the source.

How the values were obtained:
[1] = biological target: T1, 5-HT1A receptor (Homo sapiens, UniProt P08908); assay: 5-HT1A receptor affinity: displacement of [3H] 8-OH-DPAT; assay type: binding; set-up: expressed in transfected cells; details: displacement of [3H] 8-OH-DPAT; CHO cells stably transfected with human 5-HT1A receptors; read-out: 5-HT1A Receptor Affinity Ki
T1 sequence (P08908 1-422): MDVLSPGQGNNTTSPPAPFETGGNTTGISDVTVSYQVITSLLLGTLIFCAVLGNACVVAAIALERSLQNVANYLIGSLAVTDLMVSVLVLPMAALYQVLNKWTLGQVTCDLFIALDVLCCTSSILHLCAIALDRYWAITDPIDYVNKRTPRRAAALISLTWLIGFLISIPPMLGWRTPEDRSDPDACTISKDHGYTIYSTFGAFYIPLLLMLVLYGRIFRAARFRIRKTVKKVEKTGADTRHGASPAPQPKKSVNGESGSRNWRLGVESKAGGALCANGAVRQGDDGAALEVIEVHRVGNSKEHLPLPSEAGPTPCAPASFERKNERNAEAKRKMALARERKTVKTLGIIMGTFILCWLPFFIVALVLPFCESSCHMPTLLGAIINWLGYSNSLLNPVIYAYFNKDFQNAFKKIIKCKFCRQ

[2] = biological target: T2, cloned human 5-HT1A receptors (Homo sapiens, UniProt P08908); assay: 35S-GTPγS binding assay, 5-HT1A function; assay type: biochemical; details: for IC50: antagonist potency, reversal of 8-OH-DPAT, read-out: 5-HT1A Function GTPγS IC50; for EC50: agonist potency
T2 construct: expressed in transfected cells
T2 sequence (P08908 1-422): T1 sequence (P08908 1-422)

[3] = biological target: T1, 5-HT1A receptor; assay: cAMP accumulation assay, 5-HT1A function; assay type: cell-based; details: for IC50: cells marked IC50 (antagonist), read-out: 5-HT1A Function cAMP IC50; for Emax / 5-HT1A Function cAMP (Emax): in brackets after EC50 or IC50; for Emax: read-out: 5-HT1A Function cAMP (Emax); for EC50: cells marked EC50 (agonist)
[4] = biological target: T3, serotonin transporter (Rattus norvegicus, UniProt P31652); assay: 5-HT transporter affinity: displacement of 3H-paroxetine from male rat cortical membranes; assay type: binding; details: displacement of 3H-paroxetine; male rat cortical membranes; read-out: 5-HT Transporter Affinity Ki
T3 construct: displace ^3H-paroxetine from male rat cortical membranes; from tissue; host or cells: male rat cortical membranes
T3 sequence (P31652 whole entry): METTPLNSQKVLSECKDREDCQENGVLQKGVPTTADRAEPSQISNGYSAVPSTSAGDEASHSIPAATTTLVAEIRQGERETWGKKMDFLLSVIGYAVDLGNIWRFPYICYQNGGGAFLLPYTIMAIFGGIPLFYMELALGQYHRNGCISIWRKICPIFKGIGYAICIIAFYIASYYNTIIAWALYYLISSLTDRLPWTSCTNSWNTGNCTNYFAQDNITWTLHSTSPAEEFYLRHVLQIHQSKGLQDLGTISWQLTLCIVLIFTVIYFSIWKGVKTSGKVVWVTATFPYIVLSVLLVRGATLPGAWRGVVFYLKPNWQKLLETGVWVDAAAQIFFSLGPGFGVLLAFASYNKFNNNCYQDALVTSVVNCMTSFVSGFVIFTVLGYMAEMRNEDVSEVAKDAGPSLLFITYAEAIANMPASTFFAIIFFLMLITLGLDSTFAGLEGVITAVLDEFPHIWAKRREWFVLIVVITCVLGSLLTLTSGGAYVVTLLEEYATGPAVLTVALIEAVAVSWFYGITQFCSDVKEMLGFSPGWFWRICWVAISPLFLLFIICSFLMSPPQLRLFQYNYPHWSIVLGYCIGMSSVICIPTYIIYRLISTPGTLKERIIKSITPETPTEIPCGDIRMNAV

[5] = maximum inhibitory effect, in brackets after IC50, read-out: 5-HT1A Function GTPγS (Imax)
[6] = maximum inhibitory effect, in brackets after IC50
[7] = maximum stimulatory effect, in brackets after EC50, read-out: 5-HT1A Function GTPγS (Emax)

| Molecule | Ki [1] [µM] | IC50 [2] [µM] | Emax [2, 5] [%] | IC50 [3] [µM] | Emax [3] [%] | Ki [4] [µM] | 5-HT1A Function GTPγS (Imax) [2, 6] [%] | 5-HT1A Function cAMP (Emax) [3] [%] | EC50 [2] [µM] | 5-HT1A Function GTPγS (Emax) ([2]; maximum stimulatory effect, in brackets after EC50) [%] | EC50 [3] [µM] | Emax [2, 7] [%] |
| --- | --- | --- | --- | --- | --- | --- | --- | --- | --- | --- | --- | --- |
| CNC(=O)c1ccc(F)c2c1CC(N(CCc1c[nH]c3ccc(F)cc13)CC1CC1)CO2 (stereo not shown) [Compound 86, 3-{(cyclopropylmethyl)[2-(5-fluoro-1H-indol-3-yl)ethyl]amino}-8-fluoro-N-methylchromane-5-carboxamide] | 0.00882 | 0.773 | 100 | 0.229 | 0 | 0.07 | – | – | – | – | – | – |
| NC(=O)c1ccc(F)c2c1C[C@@H](N(CC1CC1)CC1CCc3[nH]c4ccc(F)cc4c3C1)CO2 (single isomer, unassigned; (+)) [Compound 178b] | 0.00948 | 0.611 | – | 0.225 | – | 0.116 | 99 | 0 | – | – | – | – |
| [3-(5-fluoro-1H-indol-3-yl)-propyl]-((3R)-5-methoxychroman-3-yl)propylamine [Compound 24] | 0.00887 | – | – | – | – | 0.00975 | – | 88.5 | 0.0483 | 91.7 | 0.00702 | – |
| NC(=O)c1ccc(F)c2c1C[C@H](N(CCCCc1c[nH]c3ccc(F)cc13)C1CCC1)CO2 [Compound 83b, (3S)-3-{cyclobutyl[4-(5-fluoro-1H-indol-3-yl)butyl]amino}-8-fluorochromane-5-carboxamide] | 0.111 | 2.5 | 100 | 5.8 | 0 | 0.0169 | – | – | – | – | – | – |
| CCCN(CCCc1coc2c(OC)cccc12)C1COc2c(F)ccc(C(N)=O)c2C1 (stereo not shown) [Compound 163, 8-fluoro-3-[[3-(7-methoxy-1-benzofuran-3-yl)propyl](propyl)amino]chromane-5-carboxamide] | 0.00074 | – | – | – | 0 | 0.539 | – | – | 0.00456 | – | – | 52 |
| CC(Cc1c[nH]c2ccc(F)cc12)CN(CC1CC1)[C@H]1COc2c(F)ccc(C(N)=O)c2C1 (single isomer, unassigned) [Compound 155a] | 0.00416 | 0.151 | 100 | 0.106 | 0 | 0.0488 | – | – | – | – | – | – |
| COc1ccc2[nH]cc(CCCN(CC3CC3)C3COc4c(F)ccc(C(N)=O)c4C3)c2c1 (stereo not shown) [Compound 108, 3-{(cyclopropylmethyl)[3-(5-methoxy-1H-indol-3-yl)propyl]amino}-8-fluorochromane-5-carboxamide] | 0.00117 | 0.0942 | 100 | 0.0454 | 0 | 0.882 | – | – | – | – | – | – |
| COc1cccc2c(CCCN(CC3CC3)C3COc4c(F)ccc(C(N)=O)c4C3)c[nH]c12 (stereo not shown) [Compound 103, 3-{(cyclopropylmethyl)[3-(7-methoxy-1H-indol-3-yl)propyl]amino}-8-fluorochromane-5-carboxamide] | 0.00354 | 1 | 95 | 0.172 | 0 | 0.976 | – | – | – | – | – | – |
| COc1cccc2c1CC(N(CCCc1c[nH]c3ccc(F)cc13)C1CCCC1)CO2 (stereo not shown) [Compound 39, N-cyclopentyl-N-[3-(5-fluoro-1H-indol-3-yl)propyl]-N-(5-methoxy-3,4-dihydro-2H-chromen-3-yl)amine] | 0.0362 | – | – | – | 70.5 | 0.069 | – | – | 5.84 | – | 0.108 | 100 |
| O=C(NC1CCC1)c1cccc2c1CC(N(CCCc1c[nH]c3c(F)cc(F)cc13)C1CCC1)CO2 (stereo not shown) [Compound 143, N-cyclobutyl-3-{cyclobutyl[3-(5,7-difluoro-1H-indol-3-yl)propyl]amino}chromane-5-carboxamide] | 0.0319 | – | – | – | 91 | 0.0044 | – | – | 1.39 | – | 0.523 | 100 |
| CCN(CCCCc1coc2ccccc12)C1COc2cccc(OC)c2C1 (stereo not shown) [Compound 22, N-[4-(1-benzofuran-3-yl)butyl]-N-ethyl-N-(5-methoxy-3,4-dihydro-2H-chromen-3-yl)amine] | 0.00477 | 1.18 | 31 | – | 100 | 0.0357 | – | – | 0.224 | – | 0.031 | 82 |
| CCCN(CCCc1c[nH]c2ccc(F)cc12)[C@@H]1CCc2cccc(OC)c2C1 [Compound 47b, (2R)-N-[3-(5-fluoro-1H-indol-3-yl)propyl]-8-methoxy-N-propyl-1,2,3,4-tetrahydronaphthalen-2-amine] | 0.00034 | – | – | – | 100 | 0.0011 | – | – | 0.0194 | – | 0.00155 | 87 |
| CCCN(C(C)CCCc1c[nH]c2ccc(F)cc12)C1COc2c(F)ccc(C(N)=O)c2C1 (single isomer, unassigned; (+)) [Compound 14a, (+)-8-fluoro-3-[[4-(5-fluoro-1H-indol-3-yl)-1-methylbutyl](propyl)amino]chromane-5-carboxamide] | 0.0417 | 2.21 | – | 0.147 | 0 | 0.0136 | 59 | – | – | – | – | – |
| COc1cccc2c1CC(N(CCCc1c[nH]c3ccc(F)cc13)CC1CCC1)CO2 (stereo not shown) [Compound 42, N-(cyclobutylmethyl)-N-[3-(5-fluoro-1H-indol-3-yl)propyl]-N-(5-methoxy-3,4-dihydro-2H-chromen-3-yl)amine] | 0.0504 | – | – | – | 72.5 | 0.054 | – | – | 0.763 | – | 0.154 | 84 |
| COc1cccc2c1CC(N(CCCc1c[nH]c3ccccc13)C1CCC1)CO2 (stereo not shown) [Compound 44, N-cyclobutyl-N-[3-(1H-indol-3-yl)propyl]-N-(5-methoxy-3,4-dihydro-2H-chromen-3-yl)amine] | 0.0214 | 0.242 | 59 | – | 80.5 | 0.0472 | – | – | – | – | 0.07 | – |
| COc1cccc2c(CCCCN(C3CCC3)C3COc4c(F)ccc(C(N)=O)c4C3)coc12 (stereo not shown) [Compound 171, 3-{cyclobutyl[4-(7-methoxy-1-benzofuran-3-yl)butyl]amino}-8-fluorochromane-5-carboxamide] | 0.00427 | 0.404 | 100 | 0.108 | 0 | 11.2 | – | – | – | – | – | – |
| CCN(CCCc1c[nH]c2c(OC)cccc12)C1COc2c(F)ccc(C(N)=O)c2C1 (stereo not shown) [Compound 101, 3-{ethyl[3-(7-methoxy-1H-indol-3-yl)propyl]amino}-8-fluorochromane-5-carboxamide] | 0.0005 | – | – | – | 68.5 | 0.642 | – | – | 0.103 | – | 0.0451 | 99 |
| NC(=O)c1ccc(F)c2c1CC(N(CCCCn1ccc3c(F)cccc31)CC1CC1)CO2 (stereo not shown) [Compound 203, 3-{(Cyclopropylmethyl)[4-(4-fluoro-1H-indol-1-yl)butyl]amino}-8-fluorochromane-5-carboxamide] | 0.00964 | 6.06 | 80 | – | 72 | 0.161 | – | – | – | – | 0.216 | – |
| CNC(=O)c1ccc(F)c2c1C[C@H](N(CCCCc1c[nH]c3ccc(F)cc13)C1CCC1)CO2 [Compound 145a, (3S)-3-{cyclobutyl[4-(5-fluoro-1H-indol-3-yl)butyl]amino}-8-fluoro-N-methylchromane-5-carboxamide] | 0.288 | 5.47 | 100 | 0.668 | 0 | 0.0161 | – | – | – | – | – | – |
| COc1cccc2c(CCCN(C3CCC3)C3COc4c(F)ccc(C(N)=O)c4C3)c[nH]c12 (stereo not shown) [Compound 102, 3-{cyclobutyl[3-(7-methoxy-1H-indol-3-yl)propyl]amino}-8-fluorochromane-5-carboxamide] | 0.00322 | 0.557 | 100 | 0.27 | 0 | 1.11 | – | – | – | – | – | – |
| NC(=O)c1ccc(F)c2c1CC(N(CCCCn1ccc3ccc(F)cc31)CC1CC1)CO2 (stereo not shown) [Compound 195, 3-{(Cyclopropylmethyl)[4-(6-fluoro-1H-indol-1-yl)butyl]amino}-8-fluorochromane-5-carboxamide] | 0.00325 | 0.371 | 100 | – | 58 | 0.0125 | – | – | – | – | 0.0219 | – |
| NC(=O)c1ccc(F)c2c1C[C@@H](NCC1CCc3c([nH]c4ccc(F)cc34)C1)CO2 (single isomer, unassigned; (-)) [Compound 179b] | 0.0242 | 6.04 | – | 0.956 | 0 | 0.0855 | 100 | – | – | – | – | – |
